Measured values taken from ChEMBL document CHEMBL2150984, “Synthesis of fluorescent ristocetin aglycon derivatives with remarkable antibacterial and antiviral activities” (Eur J Med Chem, 2012).
≈ marks a conversion by molar mass, not a printed value.

Key:
H3N2 subtype = experiment: Antiviral activity against Influenza A/HK/7/87 infected in MDCK cells assessed as inhibition of virus-induced cytopathic effect measured on day 3 post infection by MTS assay; type: functional, organism-based; conditions: A/Hong Kong/7/1987(H3N2), 72 h
[1] = Cytotoxicity against MDCK cells assessed as minimum concentration required to cause microscopically detectable alteration measured on day 3 post infection by MTS assay; type: cell-based, Canis lupus familiaris; conditions: dog
Influenza A virus = experiment: Antiviral activity against Influenza A/PR/8/34 infected in MDCK cells assessed as inhibition of virus-induced cytopathic effect measured on day 3 post infection by MTS assay; type: functional, organism-based; conditions: A/Puerto Rico/8/1934(H1N1), 72 h
Enterococcus faecalis [2] = experiment: Antibacterial activity against Enterococcus faecalis ATCC 51299 expressing vanB gene by broth microdilution method; type: functional
[3] = system: Staphylococcus epidermidis; experiment: Antibacterial activity against Staphylococcus epidermidis expressing mecA gene by broth microdilution method; type: functional
Enterococcus faecalis [4] = experiment: Antibacterial activity against Enterococcus faecalis ATCC 15376 expressing vanA gene by broth microdilution method; type: functional
Influenza B virus = experiment: Antiviral activity against Influenza B/HK/5/72 infected in MDCK cells assessed as inhibition of virus-induced cytopathic effect measured on day 3 post infection by MTS assay; type: functional, cell-based; conditions: B/Hong Kong/05/1972, MDCK, 72 h
[5] = system: Staphylococcus epidermidis; experiment: Antibacterial activity against biofilm forming Staphylococcus epidermidis ATCC 35984 by broth microdilution method; type: functional
Enterococcus faecalis [6] = experiment: Antibacterial activity against Enterococcus faecalis ATCC 29212 by broth microdilution method; type: functional
Bacillus subtilis = experiment: Antibacterial activity against Bacillus subtilis ATCC 6633 by broth microdilution method; type: functional
Staphylococcus aureus [7] = experiment: Antibacterial activity against methicillin-sensitive Staphylococcus aureus ATCC 29213 by broth microdilution method; type: functional
Staphylococcus aureus [8] = experiment: Antibacterial activity against methicillin-resistant Staphylococcus aureus ATCC 33591 by broth microdilution method; type: functional

Row | Compound | EC50 (H3N2 subtype) [µM] | MCC at 3 days [1] [µM] | EC50 (Influenza A virus) [µM] | MIC (Enterococcus faecalis [2]) [µg/mL] | MIC [3] [µg/mL] | MIC (Enterococcus faecalis [4]) [µg/mL] | EC50 (Influenza B virus) [µM] | MIC [5] [µg/mL] | MIC (Enterococcus faecalis [6]) [µg/mL] | MIC (Bacillus subtilis) [µg/mL] | MIC (Staphylococcus aureus [7]) [µg/mL] | MIC (Staphylococcus aureus [8]) [µg/mL]
1 | NC(=O)c1ncn([C@@H]2O[C@H](CO)[C@@H](O)[C@H]2O)n1 [RIBAVIRIN] | 8.9 | ≥ 20 | 6.8 |  |  |  |  |  |  |  |  | 
2 | COC(=O)[C@H]1NC(=O)[C@H]2NC(=O)[C@H](NC(=O)[C@@H]3NC(=O)[C@H]4NC(=O)[C@H](NC(=O)[C@H](n5cc6ccccc6c5S[C@@H]5O[C@H](COC(C)=O)[C@@H](OC(C)=O)[C@H](OC(C)=O)[C@H]5OC(C)=O)c5ccc(O)c(c5)Oc5cc4cc(O)c5C)[C@H](O)c4ccc(cc4)Oc4cc3cc(c4O)Oc3ccc(cc3)[C@H]2O)c2ccc(O)c(c2)-c2c(O)cc(O)cc21 | 0.072 | ≥ 4 | 0.16 | 8 (≈ 4.89 µM) | 4 (≈ 2.44 µM) | 8 (≈ 4.89 µM) | > 100 | 1 (≈ 0.611 µM) | 2 (≈ 1.22 µM) | 8 (≈ 4.89 µM) | 2 (≈ 1.22 µM) | 1 (≈ 0.611 µM)
3 | Cc1c(O)cc2cc1Oc1cc(ccc1O)[C@@H](N)C(=O)N[C@H]1C(=O)N[C@@H]2C(=O)N[C@H]2C(=O)N[C@H]3C(=O)N[C@H](C(=O)N[C@@H](C(=O)O)c4cc(O)cc(O[C@H]5O[C@H](CO)[C@@H](O)[C@H](O)[C@@H]5O)c4-c4cc3ccc4O)[C@H](O[C@H]3C[C@@H](N)[C@@H](O)[C@H](C)O3)c3ccc(cc3)Oc3cc2cc(c3O[C@H]2O[C@@H](CO[C@H]3O[C@H](C)[C@@H](O)[C@H](O)[C@@H]3O)[C@H](O)[C@@H](O)[C@@H]2O[C@H]2O[C@H](CO)[C@@H](O)[C@H](O)[C@@H]2O[C@H]2O[C@H](CO)[C@@H](O)[C@@H]2O)Oc2ccc(cc2)[C@H]1O [RISTOCETIN] |  |  |  | 256 (≈ 125 µM) | 128 (≈ 62.3 µM) | 16 (≈ 7.79 µM) |  | 2 (≈ 0.974 µM) | 4 (≈ 1.95 µM) | 16 (≈ 7.79 µM) | 128 (≈ 62.3 µM) | 32 (≈ 15.6 µM)
4 | COC(=O)[C@H]1NC(=O)[C@H]2NC(=O)[C@H](NC(=O)[C@@H]3NC(=O)[C@H]4NC(=O)[C@H](NC(=O)[C@H](n5cc6ccccc6c5S[C@@H]5O[C@H](COC(C)=O)[C@@H](OC(C)=O)[C@H](OC(C)=O)[C@H]5NC(C)=O)c5ccc(O)c(c5)Oc5cc4cc(O)c5C)[C@H](O)c4ccc(cc4)Oc4cc3cc(c4O)Oc3ccc(cc3)[C@H]2O)c2ccc(O)c(c2)-c2c(O)cc(O)cc21 | 1.8 | 20 | 1.8 | 4 (≈ 2.45 µM) | 4 (≈ 2.45 µM) | 4 (≈ 2.45 µM) | > 100 | 4 (≈ 2.45 µM) | 4 (≈ 2.45 µM) | 8 (≈ 4.89 µM) | 4 (≈ 2.45 µM) | 4 (≈ 2.45 µM)
5 | COC(=O)[C@H]1NC(=O)[C@H]2NC(=O)[C@H](NC(=O)[C@@H]3NC(=O)[C@H]4NC(=O)[C@H](NC(=O)[C@H](n5cc6ccccc6c5Sc5ccccc5)c5ccc(O)c(c5)Oc5cc4cc(O)c5C)[C@H](O)c4ccc(cc4)Oc4cc3cc(c4O)Oc3ccc(cc3)[C@H]2O)c2ccc(O)c(c2)-c2c(O)cc(O)cc21 | 0.68 | 6.4 | 0.67 | 1 (≈ 0.723 µM) | 1 (≈ 0.723 µM) | 4 (≈ 2.89 µM) | 1.4 | 0.5 (≈ 0.362 µM) | 2 (≈ 1.45 µM) | 2 (≈ 1.45 µM) | 1 (≈ 0.723 µM) | 1 (≈ 0.723 µM)
6 | COC(=O)[C@H]1NC(=O)[C@H]2NC(=O)[C@H](NC(=O)[C@@H]3NC(=O)[C@H]4NC(=O)[C@H](NC(=O)[C@H](n5cc6ccccc6c5S[C@@H]5O[C@H](CO)[C@@H](O)[C@H](O)[C@H]5O)c5ccc(O)c(c5)Oc5cc4cc(O)c5C)[C@H](O)c4ccc(cc4)Oc4cc3cc(c4O)Oc3ccc(cc3)[C@H]2O)c2ccc(O)c(c2)-c2c(O)cc(O)cc21 | 2.3 | 20 | 0.27 | 2 (≈ 1.36 µM) | 1 (≈ 0.681 µM) | 1 (≈ 0.681 µM) | > 100 | 4 (≈ 2.72 µM) | 1 (≈ 0.681 µM) | 2 (≈ 1.36 µM) | 1 (≈ 0.681 µM) | 1 (≈ 0.681 µM)
7 | COC(=O)[C@H]1NC(=O)[C@H]2NC(=O)[C@H](NC(=O)[C@@H]3NC(=O)[C@H]4NC(=O)[C@H](NC(=O)[C@H](n5cc6ccccc6c5Sc5nc6ccccc6s5)c5ccc(O)c(c5)Oc5cc4cc(O)c5C)[C@H](O)c4ccc(cc4)Oc4cc3cc(c4O)Oc3ccc(cc3)[C@H]2O)c2ccc(O)c(c2)-c2c(O)cc(O)cc21 | 4 | 20 | 1.4 | 2 (≈ 1.39 µM) | 1 (≈ 0.695 µM) | 1 (≈ 0.695 µM) | 8.9 | 2 (≈ 1.39 µM) | 0.5 (≈ 0.347 µM) | 2 (≈ 1.39 µM) | 1 (≈ 0.695 µM) | 0.5 (≈ 0.347 µM)
